# From US11753411B2, “Substituted pyrazolo[1,5-a]pyrimidines as TYK2 pseudokinase ligands” (Ventyx Biosciences, Inc., priority 2019, dated 2023)
# Test system: IFN-a/Jak1 Tyk2
# Assay: Co-stimulation assay in lysed whole blood: IFNa (JAK1/TYK2) stimulated STAT1 phosphorylation
# Type: cell-based
# Settings: Homo sapiens, 20 min, 100 ng/mL IFNa (with 10 ng/mL GM-CSF), pSTAT by flow cytometry
# Method in brief: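 Lysed human whole blood (RBC-lysed, resuspended in cRPMI) pre-incubated with compound 1 h at 37 °C, then stimulated 20 min with IFNa 100 ng/mL plus GM-CSF 10 ng/mL (final). Fixed, permeabilised, stained for pSTAT1 (PE) and pSTAT5 (AF488); flow cytometry read-out, ≥5,000–10,000 cells acquired.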
row,Structure (SMILES),IC50
1,"CNc1cc(Nc2cccc3c2OCCO3)nc2c(NC(=O)NC3CCCC3)cnn12 [Compound 108, 1-cyclopentyl-3-(5-((2,3-dihydrobenzo[b][1,4]dioxin-5-yl)amino)-7-(methylamino)pyrazolo[1,5-a]pyrimidin-3-yl)urea]",< 1000 nM
2,"CNC(=O)Nc1cnn2c(NC)cc(Nc3cccc4c3OCCCO4)nc12 [Compound 169, 1-(5-((3,4-dihydro-2H-benzo[b][1,4]dioxepin-6-yl)amino)-7-(methylamino)pyrazolo[1,5-a]pyrimidin-3-yl)-3-methylurea]",< 1000 nM
3,"CNC(=O)Nc1cnn2c(NC)cc(-c3c[nH]c4ncccc34)nc12 [Compound 88, 1-methyl-3-(7-(methylamino)-5-(1H-pyrrolo[2,3-b]pyridin-3-yl)pyrazolo[1,5-a]pyrimidin-3-yl)urea]",1000 to 10000 nM
4,"CNC(=O)Nc1cnn2c(NC)cc(-c3cn(C4CCOCC4)c4ncccc34)nc12 [Compound 80, 1-methyl-3-(7-(methylamino)-5-(1-(tetrahydro-2H-pyran-4-yl)-1H-pyrrolo[2,3-b]pyridin-3-yl)pyrazolo[1,5-a]pyrimidin-3-yl)urea]",< 1000 nM
5,"CNC(=O)Nc1cnn2c(NC)cc(Nc3cccc4nccnc34)nc12 [Compound 166, 1-methyl-3-(7-(methylamino)-5-(quinoxalin-5-ylamino)pyrazolo[1,5-a]pyrimidin-3-yl)urea]",< 1000 nM
6,"CNC(=O)Nc1cnn2c(NC)cc(Nc3cncc4ccccc34)nc12 [Compound 91, 1-(5-(isoquinolin-4-ylamino)-7-(methylamino)pyrazolo[1,5-a]pyrimidin-3-yl)-3-methylurea]",1000 to 10000 nM
7,"CNC(=O)Nc1cnn2c(NC)cc(Nc3cccc4c3OC(F)(F)O4)nc12 [Compound 115, 1-(5-((2,2-difluorobenzo[d][1,3]dioxol-4-yl)amino)-7-(methylamino)pyrazolo[1,5-a]pyrimidin-3-yl)-3-methylurea]",1000 to 10000 nM
8,"CNc1cc(-c2cn(C3CCOCC3)c3ncccc23)nc2c(NC(=O)NCC#N)cnn12 [Compound 137, 1-(cyanomethyl)-3-(7-(methylamino)-5-(1-(tetrahydro-2H-pyran-4-yl)-1H-pyrrolo[2,3-b]pyridin-3-yl)pyrazolo[1,5-a]pyrimidin-3-yl)urea]",< 1000 nM
9,"CNc1cc(-c2cn(C(C)C)c3ncccc23)nc2c(NC(=O)NC3CC3O)cnn12 (stereo not shown) [Compound 58, 1-(2-hydroxycyclopropyl)-3-(5-(1-isopropyl-1H-pyrrolo[2,3-b]pyridin-3-yl)-7-(methylamino)pyrazolo[1,5-a]pyrimidin-3-yl)urea]",≥ 10000 nM
10,"CNc1cc(Nc2cc(C)ccc2OC)nc2c(NC(=O)NCC#N)cnn12 [Compound 129, 1-(cyanomethyl)-3-(5-((2-methoxy-5-methylphenyl)amino)-7-(methylamino)pyrazolo[1,5-a]pyrimidin-3-yl)urea]",< 1000 nM
11,"CNc1cc(Nc2cccc3c2OCCO3)nc2c(NC(=O)NCC(F)(F)F)cnn12 [Compound 99, 1-(5-((2,3-dihydrobenzo[b][1,4]dioxin-5-yl)amino)-7-(methylamino)pyrazolo[1,5-a]pyrimidin-3-yl)-3-(2,2,2-trifluoroethyl)urea]",< 1000 nM
12,"CNc1cc(Nc2cc(F)cc3c2OCCO3)nc2c(NC(=O)NC3CC3F)cnn12 (stereo not shown) [Compound 37, 1-(5-((7-fluoro-2,3-dihydrobenzo[b][1,4]dioxin-5-yl)amino)-7-(methylamino)pyrazolo[1,5-a]pyrimidin-3-yl)-3-(2-fluorocyclopropyl)urea]",< 1000 nM
13,"CNc1cc(Nc2cccc3c2OCCC3=O)nc2c(NC(=O)N[C@@H]3C[C@@H]3F)cnn12 [Compound 183, 1-((1R,2S)-2-fluorocyclopropyl)-3-(7-(methylamino)-5-((4-oxochroman-8-yl)amino)pyrazolo[1,5-a]pyrimidin-3-yl)urea]",< 1000 nM
14,"CNc1cc(Nc2cc(F)cc3c2OCCO3)nc2c(NC(=O)NC3CCC3)cnn12 [Compound 105, 1-cyclobutyl-3-(5-((7-fluoro-2,3-dihydrobenzo[b][1,4]dioxin-5-yl)amino)-7-(methylamino)pyrazolo[1,5-a]pyrimidin-3-yl)urea]",< 1000 nM
15,"CNC(=O)Nc1cnn2c(NC)cc(Nc3ccccc3)nc12 [Compound 146, 1-methyl-3-(7-(methylamino)-5-(phenylamino)pyrazolo[1,5-a]pyrimidin-3-yl)urea]",1000 to 10000 nM
16,"CNC(=O)Nc1cnn2c(NC)cc(Nc3cccc4c3NC(=O)CO4)nc12 [Compound 95, 1-methyl-3-(7-(methylamino)-5-((3-oxo-3,4-dihydro-2H-benzo[b][1,4]oxazin-5-yl)amino)pyrazolo[1,5-a]pyrimidin-3-yl)urea]",1000 to 10000 nM
17,"CNc1cc(Nc2cc(Cl)cc3c2OCCO3)nc2c(NC(=O)NC3CC3)cnn12 [Compound 85, 1-(5-((7-chloro-2,3-dihydrobenzo[b][1,4]dioxin-5-yl)amino)-7-(methylamino)pyrazolo[1,5-a]pyrimidin-3-yl)-3-cyclopropylurea]",< 1000 nM
18,"CNC(=O)Nc1cnn2c(NC)cc(Nc3ccc(F)c4c3OCCO4)nc12 [Compound 142, 1-(5-((8-fluoro-2,3-dihydrobenzo[b][1,4]dioxin-5-yl)amino)-7-(methylamino)pyrazolo[1,5-a]pyrimidin-3-yl)-3-methylurea]",< 1000 nM
19,"CNC(=O)Nc1cnn2c(NC)cc(Nc3cccc4c3OCC(=O)N4)nc12 [Compound 98, 1-methyl-3-(7-(methylamino)-5-((3-oxo-3,4-dihydro-2H-benzo[b][1,4]oxazin-8-yl)amino)pyrazolo[1,5-a]pyrimidin-3-yl)urea]",1000 to 10000 nM
20,"CNc1cc(Nc2cccc3c2OCCO3)nc2c(NC(=O)NC3COC3)cnn12 [Compound 117, 1-(5-((2,3-dihydrobenzo[b][1,4]dioxin-5-yl)amino)-7-(methylamino)pyrazolo[1,5-a]pyrimidin-3-yl)-3-(oxetan-3-yl)urea]",< 1000 nM
21,"CNc1cc(Nc2cc(C)cc(C)c2)nc2c(NC(=O)N[C@@H]3C[C@@H]3F)cnn12 [Compound 60, 1-(5-((3,5-dimethylphenyl)amino)-7-(methylamino)pyrazolo[1,5-a]pyrimidin-3-yl)-3-((1R,2S)-2-fluorocyclopropyl)urea]",≥ 10000 nM
22,"CNC(=O)Nc1cnn2c(NC)cc(Nc3cccc4cccnc34)nc12 [Compound 64, 1-methyl-3-(7-(methylamino)-5-(quinolin-8-ylamino)pyrazolo[1,5-a]pyrimidin-3-yl)urea]",< 1000 nM
23,"CNc1cc(Nc2cccc3c2OCCO3)nc2c(NC(=O)NCCOC)cnn12 [Compound 112, 1-(5-((2,3-dihydrobenzo[b][1,4]dioxin-5-yl)amino)-7-(methylamino)pyrazolo[1,5-a]pyrimidin-3-yl)-3-(2-methoxyethyl)urea]",< 1000 nM
24,"CNc1cc(Nc2cccc3c2OCCO3)nc2c(NC(=O)NCCCO)cnn12 [Compound 100, 1-(5-((2,3-dihydrobenzo[b][1,4]dixoin-5-y)amino)-7-(methylamino)pyrazolo[1,5-a]pyrimidin-3-yl)-3-(3-hydroxypropyl)urea]",1000 to 10000 nM
25,"CNc1cc(Nc2cccc3c2OCCO3)nc2c(NC(=O)N[C@@H]3C[C@@H]3C#N)cnn12 [Compound 45, 1-((1R,2S)-2-cyanocyclopropyl)-3-(5-((2,3-dihydrobenzo[b][1,4]dioxin-5-yl)amino)-7-(methylamino)pyrazolo[1,5-a]pyrimidin-3-yl)urea]",< 1000 nM
